Data from the supplement of paper PMC8967900.

Tests used:
Test in all cases: selective drug sensitivity score (sDSS, relative to normal bone marrow) (sDSS (score)); higher = more potent and effective on the cell line relative to normal bone marrow cells
Details in all cases: 72 h
KARPAS-45 = test system: KARPAS-45
MHH-CALL-3 = test system: MHH-CALL-3
TANOUE = test system: TANOUE
MOLT-14 = test system: MOLT-14
NALL-1 = test system: NALL-1
380 = test system: 380
PF-382 = test system: PF-382
MOLT-4 = test system: MOLT-4
NALM-6 = test system: NALM-6
NALM-16 = test system: NALM-16
REH = test system: REH
CCRF-CEM = test system: CCRF-CEM
697 = test system: 697
P30-OHKUBO = test system: P30-OHKUBO
COG-LL-332h = test system: COG-LL-332h
TMD5 = test system: TMD5
JURKAT = test system: JURKAT
KASUMI-9 = test system: KASUMI-9
COG-LL-355h = test system: COG-LL-355h
COG-LL-319h = test system: COG-LL-319h
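Note: ALL cell lines in 384-well plates, five doses spanning 10,000-fold, each plate scaled between vehicle and 100 µmol/L benzalkonium chloride controls, sDSS an adapted area-under-curve metric.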

| SMILES | selective drug sensitivity score (KARPAS-45) | selective drug sensitivity score (MHH-CALL-3) | selective drug sensitivity score (TANOUE) | selective drug sensitivity score (MOLT-14) | selective drug sensitivity score (NALL-1) | selective drug sensitivity score 380 | selective drug sensitivity score (PF-382) | selective drug sensitivity score (MOLT-4) | selective drug sensitivity score (NALM-6) | selective drug sensitivity score (NALM-16) | selective drug sensitivity score (REH) | selective drug sensitivity score (CCRF-CEM) | selective drug sensitivity score 697 | selective drug sensitivity score (P30-OHKUBO) | selective drug sensitivity score (COG-LL-332h) | selective drug sensitivity score (TMD5) | selective drug sensitivity score (JURKAT) | selective drug sensitivity score (KASUMI-9) | selective drug sensitivity score (COG-LL-355h) | selective drug sensitivity score (COG-LL-319h) |
| --- | --- | --- | --- | --- | --- | --- | --- | --- | --- | --- | --- | --- | --- | --- | --- | --- | --- | --- | --- | --- |
| CC(C)NC(=O)COc1cccc(-c2nc(Nc3ccc4[nH]ncc4c3)c3ccccc3n2)c1 [KD025] (top concentration 5000 nM) | -2.76 | -5.36 | -5.36 | -3.36 | 2.54 | -5.36 | 1.04 | -2.76 | 1.14 | -1.16 | -5.36 | -0.66 | -0.66 | 1.84 | -0.56 | -3.16 | -3.06 | 4.04 | -0.86 | -1.06 |
| CNC(=O)c1cc(Oc2ccc(NC(=O)Nc3ccc(Cl)c(C(F)(F)F)c3)cc2)ccn1 [Sorafenib] (top concentration 1000 nM) | 0.5 | 0 | 0 | 0 | 0 | 0 | 1.3 | 0 | 0.2 | 0 | 0.2 | 0 | 1.7 | 2.2 | 0.1 | 0 | 0.4 | 0 | 0 | 0 |
| CCn1c(C(=O)N(C2CC2)C2CC2)cc2c3c(ncn3C)c(Nc3cc(C)n(C)n3)nc21 (top concentration 10000 nM) | -3.06 | -4.36 | -4.36 | -4.36 | 0.44 | -4.36 | -4.36 | -3.36 | -4.36 | -4.36 | -4.36 | -3.96 | -3.76 | -3.66 | -4.36 | -4.36 | -4.36 | 0.04 | 1.14 | -4.36 |
| Cc1ccc(C(=O)N(CCCN)[C@@H](c2oc3cc(Cl)ccc3c(=O)c2Cc2ccccc2)C(C)C)cc1 (top concentration 100 nM) | 7.16 | -2.44 | -3.64 | 3.76 | 6.06 | 1.46 | 0.86 | 1.16 | 3.56 | 5.76 | 4.26 | 2.76 | 1.36 | 4.06 | 6.96 | 11.9 | 2.96 | 4.16 | -2.64 | 13 |
| CC(C)(C)c1cnc(CSc2cnc(NC(=O)C3CCNCC3)s2)o1 [SNS-032] (top concentration 10000 nM) | -2.24 | -4.44 | -14 | -4.74 | -4.94 | -6.64 | -5.34 | -4.84 | -2.44 | -6.04 | -5.44 | -1.74 | -2.64 | -0.34 | -3.54 | -4.54 | -6.54 | -0.54 | 0.16 | -2.24 |
| Cn1cncc1[C@@](N)(c1ccc(Cl)cc1)c1ccc2c(c1)c(-c1cccc(Cl)c1)cc(=O)n2C [Tipifarnib] (top concentration 10000 nM) | 25.4 | 7 | -7.5 | 11.9 | 1.4 | 9.2 | 13 | 6.8 | 10.6 | 9.9 | 14 | 10.3 | 6.9 | 3.5 | 9.3 | 6.8 | 3.6 | 3.1 | 4.5 | 8.2 |
| N#Cc1ccc(COC[C@H]2O[C@@H](n3c(NCc4ccc(Cl)c(Cl)c4)nc4c(N)ncnc43)[C@H](O)[C@@H]2O)cc1 (top concentration 10000 nM) | 7.82 | 0.32 | 1.42 | 9.22 | -0.48 | -0.98 | 8.82 | 5.32 | 5.92 | -0.88 | 9.12 | 7.62 | 4.72 | 1.62 | 10.4 | -1.38 | 4.72 | -0.58 | 2.22 | 7.52 |
| COCCNCc1ccc(-c2cc3nccc(Oc4ccc(NC(=S)NC(=O)Cc5ccc(F)cc5)cc4F)c3s2)nc1 [Glesatinib] (top concentration 2500 nM) | 2.34 | -0.36 | -1.96 | 0.54 | 2.94 | -1.96 | -0.56 | -0.96 | -1.96 | 0.34 | 4.44 | -1.06 | 0.04 | -0.76 | 4.54 | 2.74 | -1.96 | -0.36 | 0.54 | 3.74 |
| CNC(=O)c1nn(C)c2c1C(C)(C)Cc1cnc(Nc3ccc(N4CCN(C)CC4)cc3)nc1-2 [Milciclib] (top concentration 10000 nM) | 5.04 | -5.26 | -3.76 | 7.04 | -0.86 | -0.06 | 4.84 | 3.84 | 1.94 | 3.34 | 4.44 | 2.04 | 12.5 | 4.94 | 3.24 | -1.16 | 4.34 | 9.94 | 5.44 | 7.64 |
| Cc1noc2c1-c1ccccc1C(c1ccc(Cl)cc1)=N[C@H]2CC(N)=O [CPI-0610] (top concentration 10000 nM) | 6.7 | 17.9 | -5.8 | 0.3 | -4.4 | 1.7 | 3.5 | -2.6 | 5.6 | 1.4 | -1.2 | -0.1 | 7.1 | 6.1 | -2.8 | 0 | -0.2 | 8.4 | 10.3 | 10.3 |
| CC1=NN(c2ccc(C(=O)O)cc2)C(=O)C1=Cc1ccc(-c2cc(C)c(C)cc2[N+](=O)[O-])o1 [C646] (top concentration 25000 nM) | 1.74 | 4.64 | -2.06 | 3.84 | -2.06 | -0.86 | 0.64 | 0.24 | -2.06 | -2.06 | 4.44 | 1.74 | 2.34 | 3.94 | 1.74 | -2.06 | 0.94 | 4.74 | 4.44 | 11.7 |
| Cc1cc(-c2nc(-c3ccc(OC(F)(F)F)cc3)no2)nn1Cc1ccnc(N2CCN(C3CC3)CC2)c1 [BAY_87-2243] (top concentration 1000 nM) | 16.5 | -6.36 | 25.2 | 8.64 | 0.04 | -8.66 | 16.9 | 25.1 | 10 | 4.24 | 17.1 | 6.34 | 18.7 | 6.44 | 5.54 | -1.16 | 30.1 | 5.24 | 10.8 | 2.54 |
| Cc1cc(C(C)Nc2ccccc2)c2nc(N3CCOCC3)cc(=O)n2c1 (stereo not given) [TGX-221] (top concentration 10000 nM) | 1.46 | -1.64 | -0.94 | -1.14 | -0.44 | -1.64 | -0.84 | 0.66 | 3.56 | -1.64 | -0.84 | -0.54 | 0.16 | 3.36 | -1.54 | -1.64 | -0.74 | 1.16 | 2.96 | -1.64 |
| Cc1ncc(-c2ccnc(Nc3ccc(S(C)(=O)=O)cc3)n2)n1C(C)C [AZD-5438] (top concentration 10000 nM) | 2.64 | 6.64 | -9.96 | 3.64 | -6.86 | -7.56 | -2.46 | -5.46 | 1.44 | -6.16 | 1.54 | 3.54 | 0.94 | 0.84 | -0.16 | -5.96 | -1.06 | -0.26 | 3.94 | 8.54 |
| Cc1nc(Nc2ncc(C(=O)Nc3c(C)cccc3Cl)s2)cc(N2CCN(CCO)CC2)n1 [Dasatinib] (top concentration 1000 nM) | 1.7 | -2.8 | -2.8 | 4.2 | -2.8 | -2.8 | 10.8 | 1.9 | 3.3 | -2.8 | -2.8 | -2.8 | 3.1 | 6.1 | 17 | 10.4 | -2.8 | 3.1 | -2.8 | 9.2 |
| CCN1C(=O)CNc2ncc(-c3ccc(-c4nc[nH]n4)nc3C)nc21 [CC-115] (top concentration 10000 nM) | 1.34 | 1.34 | -5.46 | 1.24 | 4.24 | 10.6 | 2.14 | 3.04 | 1.24 | 1.34 | 0.44 | 4.24 | 4.14 | 2.94 | 2.54 | -1.66 | 1.24 | 4.54 | 1.44 | 11.7 |
| Sc1ncnc2nc[nH]c12 [Mercaptopurine] (top concentration 10000 nM) | 17.1 | 0 | 7.2 | 10.9 | 10.7 | 7.4 | 9.2 | 8.7 | 9.1 | 7.9 | 17 | 14.1 | 8 | 8.9 | 15.5 | 0 | 10.3 | 15.4 | 0.5 | 17.7 |
| CC1(C)OCCn2c1nc1c(N3CCOCC3)nc(-c3cnc(N)nc3)nc12 [GDC-0084] (top concentration 10000 nM) | 5.1 | 7 | -4.9 | 1.3 | 8.7 | 15 | 5.6 | 6.9 | 7 | 2.5 | 8.8 | 6.9 | 8.2 | 10.9 | 3.7 | 6.6 | 2.9 | 9.5 | 9 | 3 |
| CN1CC[C@H](c2c(O)cc(O)c3c(=O)cc(-c4ccccc4Cl)oc23)[C@H](O)C1 [Alvocidib] (top concentration 10000 nM) | 2 | -3.6 | -11 | 1.3 | -7.1 | -4.3 | -3.3 | -2.5 | -1.2 | -3.6 | -2 | 0.6 | 1.3 | 1.1 | -0.3 | -5.7 | -2.6 | -0.7 | -0.1 | -2.7 |
